The target of assay [1] is T1, biotinylated MBL (Mannan Binding Lectin) (Homo sapiens, UniProt P11226). The experiment in a line: ELLA (Enzyme Linked Lectin Assay), glucose inhibition of MBL binding to coated antigen, Examples C3/C5. The conditions noted are these: glucose as inhibitor, 1.25 mM CaCl2, value only valid for this particular assay. How it is done: The wells were then washed (2 x 200 µl TBS).
Plates were then emptied and washed (3 x 200 µl TBS). […] The results are shown in the graphs in Fig. 1. High absorptions correspond to binding of MBL to the ligand. Baseline absorption corresponds to no binding of MBL to the ligand. […] Therefore, in an optimization step (Example C4) a range of mannose co-polymers having mannose monomer unit contents within the range of 30 % to 50 % were synthesized.
An ELLA assay was carried out as described in Example C3. […] From the inhibition curves, it is possible to calculate an IC50 value for aminodextran and the optimized ligand (Table 6). (The IC50 value is only valid for this particular assay.) TABLE 6

The target of assay [2] is T1, biotinylated MBL (Mannan Binding Lectin). Put plainly: ELLA (Enzyme Linked Lectin Assay), glucose inhibition of MBL binding to coated antigen, Examples A8/A8a. How it is done: Biotinylated MBL was prepared as follows. Biotin-NHS (20 µl, 7 mg/ml in DMSO, -10-15 eq. per MBL monomer) was added to a solution of MBL (3 ml, 0.53 mg) in PBS (3 mL). The solution was gently stirred for 2 h, then transferred to a dialysis tube (MWCO 10-12K) and dialysed against TBS (2 × 1 L) over the course of 24 h. The resulting biotinylated MBL (0.2 mg/ml) in TBS was used without further purification.
The wells were then washed (2x200 µl PBS). ConA-HRP 1% (w/v)(100 µl) in PBS was added and incubated for 1 h. Plates were then emptied and washed (3x200 µl PBS). […] The wells were then washed (2x200 µl TBS). […] Plates were then emptied and washed (3x200 µl TBS).

T1 sequence (P11226 21-248): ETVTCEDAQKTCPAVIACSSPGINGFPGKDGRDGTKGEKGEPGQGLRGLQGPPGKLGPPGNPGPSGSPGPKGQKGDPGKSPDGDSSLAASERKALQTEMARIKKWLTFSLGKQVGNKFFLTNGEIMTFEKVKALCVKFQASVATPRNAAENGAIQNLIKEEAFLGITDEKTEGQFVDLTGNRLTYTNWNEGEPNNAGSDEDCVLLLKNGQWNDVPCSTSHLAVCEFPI

Regarding `OC[C@H]1OC(O)[C@H](O)[C@@H](O)[C@@H]1O` (stereo partly drawn) [glucose], the IC50 (in general, the point on the concentration scale where inhibition reaches its midpoint) is 13 mM in assay [1] (coated antigen: 35 mol% Man Copolymer); 23 mM in assay [1] (coated antigen: Aminodextran); 9.7 mM in assay [2] (coated antigen: AmDex 150K (aminodextran), dilutions of glucose 100 mM to 0 mM, read-out: MBL affinity (IC50) or Abs(0 mM Glc)); 50 to 80 mM in assay [2] (coated antigen: Polymer of Example A4a, dilutions of glucose 100 mM to 0 mM, read-out: MBL affinity (IC50) or Abs (0 mM Glc)); 16.8 mM in assay [2] (glucose inhibiting MBL binding to plate coated with 40 mol% mannose polymer of Example A4 (Example A8), TBS, 1.25 mM CaCl2, pH 7.4, read-out: IC50); 50 to 80 mM in assay [2] (glucose inhibiting MBL binding to plate coated with 80 mol% mannose polymer of Example A4a, TBS, 1.25 mM CaCl2, pH 7.4, read-out: IC50).

(Values after patent EP1955072B1, “FLEXIBLE CARBOHYDRATE-BEARING POLYMER” (PreciSense A/S, priority 2005, dated 2007).)
